Results published in PMC6161027, “In Vitro Stimulation of Multidrug Resistance-Associated Protein 2 Function Is Not Reproduced In Vivo in Rats” (Pharmaceutics, 2018).
“And” between values parts separate entries of the source, which are not always exact repeats. Equal values may be shown once. “Also recorded” adds a separate entry of the source. Where a name gives a salt, the structure may show the parent alone. Read-outs that look alike come from different tables or passages of the source.

How the values were obtained:
rat Mrp2 [1] = molecular target: T1, rat Mrp2 (Rattus norvegicus, UniProt Q63120); settings: for effect on rat Mrp2-mediated CP-I transport in vitro: 15 min, result in words
T1 sequence (Q63120 whole entry): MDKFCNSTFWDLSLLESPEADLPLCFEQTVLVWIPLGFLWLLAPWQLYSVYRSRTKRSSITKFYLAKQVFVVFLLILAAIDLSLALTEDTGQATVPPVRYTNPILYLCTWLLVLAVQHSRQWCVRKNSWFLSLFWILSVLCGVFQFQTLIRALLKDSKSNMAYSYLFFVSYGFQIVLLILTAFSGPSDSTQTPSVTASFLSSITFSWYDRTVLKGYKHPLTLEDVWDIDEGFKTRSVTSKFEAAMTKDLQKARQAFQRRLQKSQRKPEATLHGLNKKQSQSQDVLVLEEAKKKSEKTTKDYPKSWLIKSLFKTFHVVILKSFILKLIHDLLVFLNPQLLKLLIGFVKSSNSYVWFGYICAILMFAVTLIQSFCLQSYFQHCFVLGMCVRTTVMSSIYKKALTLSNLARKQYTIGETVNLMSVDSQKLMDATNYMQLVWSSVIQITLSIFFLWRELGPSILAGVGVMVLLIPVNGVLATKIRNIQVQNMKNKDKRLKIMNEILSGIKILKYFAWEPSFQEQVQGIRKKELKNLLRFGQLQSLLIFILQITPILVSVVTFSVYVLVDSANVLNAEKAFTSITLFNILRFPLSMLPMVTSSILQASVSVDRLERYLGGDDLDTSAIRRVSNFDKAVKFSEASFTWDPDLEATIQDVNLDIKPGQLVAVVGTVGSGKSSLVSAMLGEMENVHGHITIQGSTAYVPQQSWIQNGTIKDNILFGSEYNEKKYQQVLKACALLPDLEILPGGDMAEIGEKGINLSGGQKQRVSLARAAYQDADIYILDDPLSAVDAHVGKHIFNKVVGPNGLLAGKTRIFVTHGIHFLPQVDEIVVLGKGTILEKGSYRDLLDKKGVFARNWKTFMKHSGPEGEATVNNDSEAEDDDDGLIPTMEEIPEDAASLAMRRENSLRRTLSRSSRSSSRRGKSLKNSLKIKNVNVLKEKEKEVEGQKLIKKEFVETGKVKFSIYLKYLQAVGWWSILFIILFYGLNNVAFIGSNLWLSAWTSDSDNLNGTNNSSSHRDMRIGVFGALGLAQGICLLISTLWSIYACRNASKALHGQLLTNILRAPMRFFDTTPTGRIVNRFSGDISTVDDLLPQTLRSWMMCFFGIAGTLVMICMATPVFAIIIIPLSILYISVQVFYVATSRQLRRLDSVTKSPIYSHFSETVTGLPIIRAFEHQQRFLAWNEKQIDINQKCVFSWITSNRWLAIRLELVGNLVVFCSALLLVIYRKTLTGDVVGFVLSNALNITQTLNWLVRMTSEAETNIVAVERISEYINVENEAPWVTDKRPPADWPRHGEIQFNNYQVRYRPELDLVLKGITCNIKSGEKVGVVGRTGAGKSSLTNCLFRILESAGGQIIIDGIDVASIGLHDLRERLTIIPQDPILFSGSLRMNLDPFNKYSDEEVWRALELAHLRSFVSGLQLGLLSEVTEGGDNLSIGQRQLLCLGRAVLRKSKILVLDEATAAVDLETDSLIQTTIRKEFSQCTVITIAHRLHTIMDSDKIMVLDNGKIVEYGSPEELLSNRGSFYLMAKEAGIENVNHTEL
Procedure: Rat Mrp2-mediated CP-I transport was measured in inside-out membrane vesicles. Mrp2 vesicle protein (50 µg/well) were preincubated with modulators at above reported concentrations at 37 °C and reaction was started by adding CP-I (5 µM) and incubated for 15 min. NP; not performed. For more on experimental details refer to Section 2.3. Dotted line represents basal level (100%) of CP-I uptake in control wells in the presence of ATP with no modulators added. All data values presented as mean and SD of single experiment performed in triplicate wells.

rat Mrp2 [2] = molecular target: T1, rat Mrp2; settings: for % Net decrease in ATP-dependent CP-I uptake in presence of bilirubin: bilirubin 10 µM, uptake with modulator alone as control, duplicate wells
Procedure: Figure 3 Effect of bilirubin on the transport of CP-I using rat Mrp2 vesicles in the presence and absence of modulators. Rat Mrp2 vesicles (50 µg/well) were preincubated with and without bilirubin (10 µM) and modulators for 3 min at 37 °C. % Net decrease in ATP-dependent CP-I uptake in presence of bilirubin was calculated by taking CP-I uptake values in presence of modulators as control. All data values presented as mean of single experiment performed in duplicate wells.

[3] = Plasma and liver concentrations of modulators after i.v. infusion in rats; assay type: in vivo; settings: Sprague-Dawley, rat; for Kp at 3 h: liver at terminal time point (3 h); for Cmax: plasma, iv
in vitro = settings: tissue homogenate
[4] = rat, in vivo
human MRP2 = settings: cited from earlier work; for stimulation of CP-I transport in human MRP2 vesicles / effect on MRP2 when CP-I is used as probe substrate: result in words ref 10
Mrp2 [5] = molecular target: T2, Mrp2 (Rattus norvegicus, UniProt Q63120); assay: Biliary and renal secretion of endogenous CP-I and CP-III in bile duct cannulated rats before and after modulators; settings: for Bile Flow: cumulative volume / total collection time, mean ± SD, three animals; for Mrp2-mediated CP-I transport in vivo (biliary clearance, cumulative amount in bile) before and after treatment: bile duct cannulated rats
T2 sequence (Q63120 whole entry): as above

Mrp2 [6] = test system: Mrp2; set-up: method as in PMID 15194559; settings: rats ref 17; cited from earlier work
[7] = test system: flurbiprofen metabolism in liver microsome; set-up: method as in PMID 11457649, PMID 9521735; settings: in presence of dapsone ref 22, 23; cited from earlier work
[8] = set-up: method as in PMID 11457649, PMID 9521735; settings: humans, in presence of dapsone ref 22, 23; cited from earlier work
Mrp2 [9] = test system: Mrp2; set-up: method as in PMID 19118132; settings: cited from earlier work
Mrp2 [10] = test system: Mrp2; set-up: method as in PMID 27964938; settings: in the presence of metformin, plasma exposure not affected ref 9; cited from earlier work
Oatp = assay: CP-I uptake in suspended rat hepatocytes with and without rifamycin SV; assay type: cell-based; settings: rifamycin SV 1 mM, CP-I 0.5 µM, 37 °C, result in words
rat Mrp2 [11] = molecular target: T1, rat Mrp2
Mrp2 [12] = molecular target: T2, Mrp2; settings: in vivo

With `O=C1c2c(O)ccc(O)c2C(=O)c2c(NCCNCCO)ccc(NCCNCCO)c21` [Mitoxantrone, Mitoxantrone hydrochloride] the “concentration from which in vitro stimulation started” value (rat Mrp2 [1]) was no less than 1 µM, the “effect on rat Mrp2-mediated CP-I transport in vitro” value (rat Mrp2 [1]; CP-I 5 µM) was “strongest stimulator; also recorded: stimulated” and the “concentrations giving inhibition of Mrp2 mediated CP-I transport” value (rat Mrp2 [1]; bell-shaped curve, higher concentrations) was greater than 250 µM. For the same compound, the “concentrations giving stimulation of Mrp2 mediated CP-I transport” value (rat Mrp2 [1]; bell-shaped curve, lower concentrations) was “up to 250 µM”, the “% Net decrease in ATP-dependent CP-I uptake in presence of bilirubin” value (rat Mrp2 [2]; modulator 200 µM) was 34% and 42% and the concentration at 3 h ([3]; intravenous, 6 mg/kg i.v., liver homogenate, LC-MS/MS, read-out: Liver Total Concentrations) was 854 µM. It also gave a concentration at 3 h ([3]; intravenous, 15 mg/kg i.v., liver homogenate, LC-MS/MS, read-out: Liver Total Concentrations) of 950 µM, a concentration at 3 h ([3]; liver (unbound), intravenous, 6 mg/kg i.v., Fu,liver x total liver concentration, read-out: Liver Unbound Concentrations) of 0.26 µM and a Kp at 3 h ([3]; liver/plasma, intravenous, 6 mg/kg i.v., read-out: Liver to Plasma Ratio) of 199. It also gave a Kp at 3 h ([3]; liver/plasma, intravenous, 15 mg/kg i.v., read-out: Liver to Plasma Ratio) of 202, a Cmax ([3]; 6 mg/kg i.v.) of 4.3 µM and a Cmax ([3]; 15 mg/kg i.v.) of 4.7 µM. The fraction unbound at 6 h, 10 µM (in vitro) was 0.0003, the “toxicity limiting the dose” value [4] was “observed toxicity” and the “stimulation of CP-I transport in human MRP2 vesicles” value (human MRP2) was “significant stimulation”. The “Bile Flow” value (Mrp2 [5]; after mitoxantrone 6 mg/kg i.v.) was 1.05 ± 0.11 mL/h, the “Bile Flow” value (Mrp2 [5]; after mitoxantrone 15 mg/kg i.v.) was 1.38 ± 0.56 mL/h and the “Mrp2-mediated CP-I transport in vivo (biliary clearance, cumulative amount in bile) before and after treatment” value (Mrp2 [5]; result in words) was “no significant difference”. The “biliary excretion of CP-I and III” value (Mrp2 [5]; mitoxantrone 6 mg/kg, between 0.25 and 0.5 h, result in words) was “significant increase” and the “biliary secretion of CP-I” value (Mrp2 [5]; mitoxantrone 15 mg/kg, from 0.33 to 1.25 h, result in words) was “decreased”.

In the case of `CC(=O)[C@H]1CC[C@H]2[C@@H]3CCC4=CC(=O)CC[C@]4(C)[C@H]3CC[C@]12C` [Progesterone, progesterone], the “effect on rat Mrp2-mediated CP-I transport in vitro” value (rat Mrp2 [1]; CP-I 5 µM) is reported as “stimulated”, the “stimulation of Mrp2 mediated transport of CP-I” value (rat Mrp2 [1]; modulator 1 µM, CP-I 5 µM) is reported as greater than 1.5 fold and the “% Net decrease in ATP-dependent CP-I uptake in presence of bilirubin” value (rat Mrp2 [2]; modulator 100 µM) is reported as 17% and 12%. It also gave a concentration at 2 h ([3]; intravenous, 1 mg/kg i.v., liver homogenate, LC-MS/MS, read-out: Liver Total Concentrations) of 197 µM, a concentration at 2 h ([3]; liver (unbound), intravenous, 1 mg/kg i.v., Fu,liver x total liver concentration, read-out: Liver Unbound Concentrations) of 1.86 µM and a Kp at 2 h ([3]; liver/plasma, intravenous, 1 mg/kg i.v., liver at terminal time point (2 h), read-out: Liver to Plasma Ratio) of 1.2. For the same compound, the Cmax ([3]; 1 mg/kg i.v.) was 165 µM, the fraction unbound at 6 h, 10 µM (in vitro) was 0.0094 and the “stimulation of CP-I transport in human MRP2 vesicles” value (human MRP2) was “significant stimulation”. For the same compound, the “Bile Flow” value (Mrp2 [5]; after progesterone 1 mg/kg i.v.) was 1.62 ± 0.39 mL/h, the “Mrp2-mediated CP-I transport in vivo (biliary clearance, cumulative amount in bile) before and after treatment” value (Mrp2 [5]; result in words) was “did not stimulate” and the “biliary secretion of CP-III” value (Mrp2 [5]; progesterone 1 mg/kg, from 0.17 to 1.5 h, result in words) was “significant decrease”.

For `CCc1oc2ccccc2c1C(=O)c1cc(Br)c(O)c(Br)c1` [benzbromarone], the “effect on MRP2 when CP-I is used as probe substrate” value (human MRP2) is given as “inhibitors”.

For `CC1(C)S[C@@H]2[C@H](NC(=O)Cc3ccccc3)C(=O)N2[C@H]1C(=O)O` [benzyl penicillin], the “transient enhancement of biliary clearance of glutathione (GSH)” value (Mrp2 [6]) is given as “about four-fold”.

With `C=CC1=C(C)/C(=C/c2[nH]c(Cc3[nH]c(/C=C4\NC(=O)C(C)=C4C=C)c(C)c3CCC(=O)O)c(CCC(=O)O)c2C)NC1=O` [bilirubin] the “effect on in vitro stimulation of Mrp2-mediated CP-I transport” value (rat Mrp2 [2]; 10 µM, result in words) was “suppressed”.

For `Nc1ccc(S(=O)(=O)c2ccc(N)cc2)cc1` [dapsone], the “stimulation of flurbiprofen metabolism” value [7] is given as “two-fold” and the “increase in flurbiprofen clearance” value [8] is given as 10%.

For `COc1ccc2c(c1)c(CC(=O)O)c(C)n2C(=O)c1ccc(Cl)cc1` [indomethacin], the “decrease of E17βG half-life” value (Mrp2 [9]; rats ref 16) is given as 40%, the “effect on E17βG biliary clearance” value (Mrp2 [9]; rats, result in words ref 16) is given as “increases” and the “effect on MRP2 when CP-I is used as probe substrate” value (human MRP2) is given as “inhibitors”.

In the case of `CN(C)C(=N)N=C(N)N` [metformin], the “increase of atorvastatin liver concentration” value (Mrp2 [10]) is given as 1.64 fold.

In the case of `CO[C@H]1/C=C/O[C@@]2(C)Oc3c(C)c(O)c4c(O)c(cc(O)c4c3C2=O)NC(=O)/C(C)=C\C=C\[C@H](C)[C@H](O)[C@@H](C)[C@@H](O)[C@@H](C)[C@H](OC(C)=O)[C@@H]1C` [rifamycin, rifamycin SV], the “effect on CP-I uptake in isolated rat hepatocytes” value (Oatp) is reported as “rifamycin sensitive”.

With coproporphyrin-I [CP-I] the Km (rat Mrp2 [11]) was 15 ± 6 µM, the “apparent Vmax” value (rat Mrp2 [11]; CP-I uptake, rat Mrp2 membrane vesicles, 37 °C, 15 min, mean ± SD) was 161 ± 20 pmol/min/mg protein and the “ATP over AMP ratio of CP-I uptake” value (rat Mrp2 [11]; rat Mrp2 membrane vesicles) was 23. The “average biliary clearance relative to CP-III” value (Mrp2 [12]) was “four-fold higher”, the “basal level excreted in rat bile in 2 h” value (Mrp2 [12]) was “about 600 pmoles” and the Km (human MRP2) was 7.7 µM.

With coproporphyrin-III [CP-III] the “urinary clearance relative to CP-I” value (Mrp2 [5]; control experiments) was “three-fold higher”, the “basal level excreted in rat bile in 2 h” value (Mrp2 [5]; endogenous, no modulator) was roughly 1200 pmol and the “plasma AUC (0–2 h), basal” value (Mrp2 [5]; endogenous, no modulator) was roughly 9.5 nM·h. For the same compound, the “basal plasma levels relative to CP-I” value (Mrp2 [5]; rats) was “three-four times higher”.
